Assay results from US10136663B2, “Curcuminoid-based compound/stevioside-containing complex for the prevention and treatment of an influenza virus infection” (priority 2011, dated 2018).
Where two headings read alike, the source gives them in different places.

Experiments:
[1] = tested on: influenza virus type A (H9N2); design: species or system chicken; details: in vivo, po
[2] = Curcumin content of curcumin/stevioside complex solution; format: physicochemical; details: in 100 g/L of the stevioside solution, after ultrasonication at 70° C. and oven reaction
[3] = tested on: influenza virus H9N2 (A/Chicken/Korea/MS96/96); details: dog
[4] = tested on: influenza virus H9N2 (A/Chicken/Korea/MS96/96); details: dog; remark: listed apart in the source

SMILES: C=C1C[C@@]23CC[C@H]4[C@@](C)(CCC[C@@]4(C)C(=O)O[C@@H]4O[C@H](CO)[C@@H](O)[C@H](O)[C@H]4O)[C@@H]2CC[C@]1(O[C@@H]1O[C@H](CO)[C@@H](O)[C@H](O)[C@H]1O[C@@H]1O[C@H](CO)[C@@H](O)[C@H](O)[C@H]1O)C3 [G4, stevioside]
- Mean virus titer, Cecal Tonsil [1]: 5.30 ± 3.5 log10EID50/g
- Mean virus titer, Trachea [1]: 5.80 ± 1.3 log10EID50/g
- Virus re-isolation, Cecal Tonsil (number of virus-positive chicken/number of inoculated chickens) [1]: 8/10
- Virus re-isolation, Trachea (number of virus-positive chicken/number of inoculated chickens) [1]: 10/10

SMILES: COc1cc(/C=C/C(=O)/C=C(O)/C=C/c2ccc(O)c(OC)c2)ccc1O [Curcumin, curcumin]
- maximum curcumin in the resulting solution [2]: 3.5 g/L

SMILES: CCOC(=O)C1=C[C@@H](OC(CC)CC)[C@H](NC(C)=O)[C@@H](N)C1 [Tamiflu, reference compound]
- SI, selective index, CC50/EC50 [3]: >200
- SI, selective index, CC50/EC50 [4]: >200
